Assay type in all cases: functional, cell-based
In assay [1] the test system is P388. As to the kind of experiment: Cytotoxicity against vincristine-sensitive mouse P388 cells.
For assay [2], the system named is P388. As to the kind of experiment: Cytotoxicity against vincristine-resistant mouse P388 cells.
Assay [3] has as its system P388. Kind of assay: Cytotoxicity against vincristine-resistant mouse P388 cells in presence of vincristine.

≈ marks a conversion by molar mass, not a printed value.

The term IC50 denotes the concentration that inhibits the measured activity by half. Consider `CCCC(=O)CCC1=C(O)C(=O)c2cc(OC)c(OC)c(O)c2C1=O`, for which the IC50 in the assay on P388 [1], in the assay with P388 [2] and in the assay with P388 [3] was above 50 µg/mL in each case.
On to `CCCC(=O)CCC1=C(O)C(=O)c2cc(O)c(O)c(O)c2C1=O`, for which the IC50 was determined as 12.1 µg/mL (≈ 37.8 µM) in the assay with P388 [1], 14 µg/mL (≈ 43.7 µM) in the assay with P388 [2] and 12.6 µg/mL with P388 [3].
In the same order, the values of `CCCC(=O)CCC1=C(O)C(=O)c2cc(O)c(OC)c(O)c2C1=O` are above 50 µg/mL, above 50 µg/mL and 13.8 µg/mL.

(Values after ChEMBL document CHEMBL1146559, “Dihydrolindbladiones, three new naphthoquinone pigments from a myxomycete Lindbladia tubulina” (J Nat Prod, 2003).)
